“Also recorded” adds a separate entry of the source.

Data set [1] deals with cells.
The subject of data set [2] is HIV-1. In words: Viral core protein p24 expression in H9 cell cultures (HIV-1 replication). Format: cell-based, HIV-1 (H9 cells). As for the experimental part: (§1) FIG. 3 is a graph showing the effects of GAP 31, DAP 30 and DAP 32 on HIV-1 replication, measured by viral core antigen p24 expression and HIV-RT activity. p24 production was determined by RIA and expressed in ng/ml. Viral-RT activity was determined by the incorporation of [^3 H]dTTP into TCA-precipitable products and expressed as cpm×10^3 /ml. These values in control culture (without added plant proteins) were 2219 ng/ml and 846×10^3 cpm/ml, respectively, as determined in triplicates in two independent experiments. Results are normalized to values obtained in control cultures.
(§2) The anti-HIV activities of GAP 31, DAP 30, and DAP 32 were determined by microtiter syncytia formation in infectious cell center assay (Nara, P. L. et al., Nature 332:469-70 (1988)), viral core protein p24 expression (Nara, P. L. et al., AIDS Res. Human Retroviruses 3:283-302 (1987)), and viral-associated RT activity (Hoffman, A. D. et al., Virology 147:326-35 (1985)). […]
(§3) Assays of viral core protein p24 expression and HIV-RT activity were carried out in H9 cell cultures. […] The amount of p24 was measured by RIA and expressed in terms of ng/ml. HIV-RT activity was determined by the incorporation of [^3 H] labeled thymidine with poly(rA).p(dT)12-18 as primer-template and expressed in terms of cpm/ml.

Data set [3] deals with HIV-1. In words: Syncytia formation in infectious cell center assay (HIV-1 infection). In kind it is cell-based, HIV-1 (CEM-ss indicator cells).
Source text: FIG. 2 is a graph showing the effects of GAP 31, DAP 30 and DAP 32 on HIV-1 infection by inhibition of syncytia formation in an infectious cell center assay (ICC). Results represent average values of triplicates from two independent experiments. Triplicate wells of indicator cells containing the test compounds at each concentration without virus were also included for the determination of the cytotoxic and cytostatic activities of these anti-HIV proteins. Infectious cell centers (%ICC) are expressed in terms of Vn/Vo where Vn and Vo are average numbers of syncytia in the drug-treated and untreated samples respectively.
as §2
Freshly prepared indicator cells in culture medium at 5×10^4 in 100 μl were treated with 100 μl of SCRIP at various concentrations, for 90 min. […] Focal syncytium formation representing single infectious virion units was scored at day 5 by examination under an inverted microscope. […]

Data set [4] has as its system HIV-1. In words: Viral-associated reverse transcriptase (HIV-RT) activity in H9 cell cultures. In kind it is cell-based, HIV-1 (H9 cells). As for the experimental part:
as §1, §2, §3

A further data set deals with CF1 mice. As to conditions: i.p.
Another data set has as its system H9 cells. As to the kind of experiment: Cytotoxicity to uninfected H9 cells (cellular DNA and protein synthesis). In kind it is cell-based. As for the experimental part: FIG. 4 is a graph showing the cytotoxic activity of GAP 31, DAP 30 and DAP 32, measured as cellular incorporation of [^3 H] thymidine or leucine into TCA-insoluble material in pulse labeling experiments. H9 cells were seeded at 2×10^4 cells/well and cultures pulsed with 1 μCi (1 Ci=37 GBq) of label 8 hr prior to harvesting at day 4. DNA or protein synthesis were measured by scintillation counting of the incorporation of labelled precursors. Results are normalized to values obtained for controls cultures without added anti-HIV proteins. Control values for thymidine uptake was 201,000 cpm and for leucine was 61,000 cpm. Results are the average triplicate values in two independent experiments.
The cytotoxicities of the SCRIPs were measured by their effects on cellular DNA and protein syntheses in uninfected H9 cells. Target cells were grown in the absence and presence of various amounts of SCRIPs. The cultures were pulse labeled with 1 μCi of [^3 H] labeled thymidine or leucine for 8 hours prior to harvesting on day 4. Cellular incorporation of these labeled precursors into trichloroacetic acid (TCA) precipitable products was determined by scintillation counting. Cell viability was determined by trypan blue dye exclusion. Toxicity to intact animals was determined by intraperitoneal injection (i.p.) of the SCRIPs into mice. […]

The subject of data set [5] is ribosome (rabbit reticulocyte lysate system). In words: Ribosome-inactivating activity: cell-free translation of globin mRNA in rabbit reticulocyte lysate. Format: biochemical. How it is done: FIG. 5 is a graph showing the ribosome-inactivating activity of GAP 31, […] and DAP 32, measured as in vitro translation of globin mRNA in a rabbit reticulocyte system. Inhibition of protein synthesis was determined by measuring incorporation of [^3 H]leucine into TCA-insoluble material as a function of drug concentration. Results are from two independent experiments each run in duplicate. Average control values for leucine incorporation without added anti-HIV protein is 65,000 cpm/μl. Results are shown as % of control plotted against concentration of the added anti-HIV protein.
Ribosome-inactivating activity was measured by cell-free protein biosynthesis in a rabbit reticulocyte lysate system. The reaction was carried out in a total volume of 25 μl containing 2 mM magnesium acetate, 80 mM potassium acetate, 2.5 mM spermidine, 34.5 mg/ml creatine phosphate, 26 mg/ml GTP, 250 mM HEPES buffer, 1 μCi of [3H] leucine and 1 μg of globin mRNA. Incubation was conducted at 37° C. for 30 min. The translation products were resolved by TLC in a solvent system of methanol/water/TCA/glacial acetic acid (30/50/10/10, V/V/W/V). The incorporation of [^3 H] labeled leucine into TCA precipitable product was measured by scintillation counting.

The subject of data set [6] is cells. The following applies: literature; cited from earlier work.
In a further data set the test system is HIV. The following applies: literature; cited from earlier work.

“SAP-6: a SCRIP isolated from Saponaria officinalis”: the “toxicity (cytotoxicity) in words” value in the data set on cells [1] is recorded as “relatively toxic”.

trichosanthin: the “Inhibition of p24 activity (expression), ID50” value in the data set on HIV-1 [2] stood at 370 pM. In addition, in the data set on HIV-1 [3], the “Inhibition of syncytium formation, ID50” value came to 340 pM. Further, the “Inhibition of Reverse Transcriptase (HIV-RT activity), ID50” value in the data set with HIV-1 [4] came to 460 pM. The “In Vivo Toxicity, LD50 (range)” value in the data set with CF1 mice lay in the range of 5 to 7 mg/kg. The hepatic hyperplasia entry with CF1 mice (0.1-100 mg per 100 gm body weight every three days) is on record as “moderate hepatic hyperplasia”. The “Cytotoxicity, ID50” value in the data set on H9 cells came to 340000 pM. Moreover, the “Ribosome-inactivation, ID50” value in data set [5] stood at 3700 pM. In addition, in the data set on cells [6], the cytotoxicity entry is reported as “toxic; also recorded: cytotoxic side effects”. In addition, the anti-HIV activity entry with HIV is “reduced viral antigen expression in, and were selectively toxic to, HIV-infected cells”. For the same substance, the “toxicity (cytotoxicity) in words” value in the data set with cells [1] was “toxic”.

Source of the values: patent US5317009A, “Anti-HIV proteins GAP 31, DAP 30 and DAP 32 and therapeutic uses thereof” (New York University, priority 1991, dated 1994).
